The target of this experiment is T1, 5-LOX (Homo sapiens, UniProt P09917).
T1 construct: purchased Cayman Chemical Batch No.: A3457
T1 sequence (P09917 1-674): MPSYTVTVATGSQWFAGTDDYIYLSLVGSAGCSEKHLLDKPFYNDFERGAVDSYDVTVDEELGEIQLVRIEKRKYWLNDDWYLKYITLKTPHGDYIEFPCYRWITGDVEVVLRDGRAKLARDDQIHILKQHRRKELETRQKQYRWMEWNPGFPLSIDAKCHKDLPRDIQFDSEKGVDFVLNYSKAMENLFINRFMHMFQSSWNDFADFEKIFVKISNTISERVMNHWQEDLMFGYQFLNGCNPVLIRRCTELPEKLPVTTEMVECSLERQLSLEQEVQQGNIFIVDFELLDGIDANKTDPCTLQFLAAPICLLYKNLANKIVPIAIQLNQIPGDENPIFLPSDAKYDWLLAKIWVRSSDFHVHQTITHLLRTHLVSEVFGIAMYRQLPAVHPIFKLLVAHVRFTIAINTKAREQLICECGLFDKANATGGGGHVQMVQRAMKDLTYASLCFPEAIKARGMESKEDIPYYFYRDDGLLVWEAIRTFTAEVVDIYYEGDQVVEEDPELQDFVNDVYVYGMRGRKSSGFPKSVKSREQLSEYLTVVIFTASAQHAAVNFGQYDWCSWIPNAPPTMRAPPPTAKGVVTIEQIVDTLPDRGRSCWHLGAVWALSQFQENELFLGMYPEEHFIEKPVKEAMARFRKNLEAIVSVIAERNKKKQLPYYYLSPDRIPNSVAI
The experiment is described as follows: 5-LOX inhibitory assay. The format is biochemical. As for the experimental part:
The activity of MAK01 against the 5-LOX enzyme was investigated using a human recombinant form of 5-LOX [47]. To begin the 5-LOX activity assay, a 10,000 U/mL solution of 5-LOX was prepared in a phosphate buffer with a pH of 6.3. A range of concentrations of the test compounds in the same buffer were prepared for assay. As a substrate for 5-LOX, linoleic acid (80 mM) was diluted with ethyl alcohol and used in the assay. The experiment involved mixing the same amount of both the enzyme solution and the test sample, such as mixing 0.25 mL 5-LOX with 0.25 mL of the compound, both dissolved in buffer. The mixing was followed by incubation at 25 °C for 5 to 10 min. Subsequently, 0.10 mL of the linoleic acid solution was added and allowed to incubate for another 5 min. The absorbance was measured using a UV–visible spectrophotometer at a wavelength of 234 nm, and the percent inhibition was calculated based on the absorbance readings. The same procedure was repeated for different concentrations of the test samples. Zileuton, as a reference drug, was used in comparisons. Using the following formula, the percent inhibition for each sample was calculated: % Inhibition=Abs. of Control−Abs. of Sample/Abs. of Control×100

In general, IC50 refers to the concentration at which inhibition is half-maximal. Higher therefore signals weaker potency. One may read the inhibition as how much of the control response was suppressed.

As for `CCOC(=O)C(C)(C)C1CC(=O)N(c2ccccc2)C1=O` (centres unmarked) [MAK01, ethyl 2-(2,5-dioxo-1-phenylpyrrolidin-3-yl)-2-methylpropanoate], the IC50 is 363 µM. Where the note is “62.50 μg/mL”, this compound showed a 5-LOX percent inhibition of 45%. Besides, the inhibition at 62.5 µg/mL (62.50 μg/mL, read-out: 5-LOX percent inhibition) was found to be 44.8%. For the same compound, the 5-LOX percent inhibition (125 μg/mL) turned out to be 52%. Moreover, the inhibition at 125 µg/mL (125 μg/mL, read-out: 5-LOX percent inhibition) was found to be 51.9%. This compound also came in with a 5-LOX percent inhibition (250 μg/mL) of 60%. Further, the inhibition at 250 µg/mL (250 μg/mL, read-out: 5-LOX percent inhibition) stood at 60.2%. Also, where the note is “500 μg/mL”, the 5-LOX percent inhibition worked out at 70%. Moreover, the inhibition at 500 µg/mL (500 μg/mL, read-out: 5-LOX percent inhibition) amounted to 69.9%. This compound also showed a 5-LOX percent inhibition (1000 μg/mL) of 79%. Besides, under “1000 μg/mL, read-out: 5-LOX percent inhibition”, the inhibition at 1000 µg/mL was 79.4%.

For the origin of these results see article PMC11597207, “Synthesis and Anti-Inflammatory and Analgesic Potentials of Ethyl 2-(2,5-Dioxo-1-Phenylpyrrolidin-3-yl)-2-Methylpropanoate” (Pharmaceuticals, 2024).
